Results from ChEMBL document CHEMBL1153018, “Synthesis of pochoxime prodrugs as potent HSP90 inhibitors” (Bioorg Med Chem Lett, 2009).
The source made the active and inactive calls. No cut-off for these calls is given here.

Experiments:
BT-474 [1] = experiment: Induction of HSP70 degradation in human BT474 cells xenografted in ICR-SCID mouse at 100 mg/kg, ip administered after 3 weeks tumor implantation after 6 to 48 hrs by Western blotting; format: functional, organism-based; set-up: dose 100 mg/kg
[2] = Drug level in tumor of human BT474 cells xenografted in ICR-SCID mouse at 100 mg/kg, ip administered after 3 weeks tumor implantation measured after 48 hrs; format: ADME, organism-based, Neoplasm, BT-474; set-up: dose 100 mg/kg, route intraperitoneal; settings: tumor (human BT474 xenograft), read-out: Drug uptake
Mus musculus [3] = experiment: Toxicity in ICR-SCID mouse heart assessed as […] level at 150 mg/kg administered 3 times per week for 4 weeks measured after 24 hrs of last dose relative to untreated control; format: organism-based; set-up: dose 150 mg/kg; settings: in vivo
BT-474 [4] = experiment: Induction of p-HER2 degradation in human BT474 cells xenografted in ICR-SCID mouse at 100 mg/kg, ip administered after 3 weeks tumor implantation after 6 to 48 hrs by Western blotting; format: functional, organism-based; set-up: dose 100 mg/kg
MDA-MB-468 = experiment: Growth inhibition of human MDA-MB-468 cells assessed as ATP level after 4 days; format: functional; settings: MDA-MB-468, 96 h
Homo sapiens = species on record: Homo sapiens; experiment: Growth inhibition of human tarceva and iressa-resistant […] cells assessed as ATP level after 4 days; format: functional
Mus musculus [5] = experiment: Hepatotoxicity in ICR-SCID mouse liver assessed as alanine aminotransferase level at 100 mg/kg administered 3 times per week for 4 weeks measured after 24 hrs of last dose relative to untreated control; format: toxicity, organism-based; set-up: dose 100 mg/kg; settings: in vivo
[6] = Drug level in tumor of human BT474 cells xenografted in ICR-SCID mouse at 150 mg/kg, ip administered after 3 weeks tumor implantation measured after 48 hrs; format: ADME, organism-based, Neoplasm, BT-474; set-up: dose 150 mg/kg, route intraperitoneal; settings: tumor (human BT474 xenograft), read-out: Drug uptake
BT-474 [7] = experiment: Induction of p-AKT degradation in human BT474 cells xenografted in ICR-SCID mouse at 100 mg/kg, ip administered after 3 weeks tumor implantation after 6 to 48 hrs by Western blotting; format: functional, organism-based; set-up: dose 100 mg/kg
Mus musculus [8] = experiment: Hepatotoxicity in ICR-SCID mouse liver assessed as alanine aminotransferase level at 150 mg/kg administered 3 times per week for 4 weeks measured after 24 hrs of last dose relative to untreated control; format: toxicity, organism-based; set-up: dose 150 mg/kg; settings: in vivo
Mus musculus [9] = experiment: Toxicity in ICR-SCID mouse kidney assessed as BUN level at 100 mg/kg administered 3 times per week for 4 weeks measured after 24 hrs of last dose relative to untreated control; format: organism-based; set-up: dose 100 mg/kg; settings: in vivo
[10] = Half life in ICR-SCID mouse; format: ADME, organism-based; settings: in vivo
[11] = Drug level in tumor of human BT474 cells xenografted in ICR-SCID mouse at 100 mg/kg, ip administered after 3 weeks tumor implantation measured after 24 hrs; format: ADME, organism-based, Neoplasm, BT-474; set-up: dose 100 mg/kg, route intraperitoneal; settings: tumor (human BT474 xenograft), read-out: Drug uptake
Mus musculus [12] = experiment: Toxicity in ICR-SCID mouse kidney assessed as BUN level at 150 mg/kg administered 3 times per week for 4 weeks measured after 24 hrs of last dose relative to untreated control; format: organism-based; set-up: dose 150 mg/kg; settings: in vivo
NCI-H1975 [13] = experiment: Induction of mutant p-Akt degradation in human tarceva and iressa-resistant NCI-H1975 cells at 20 to 500 nM by Western blotting; format: functional, cell-based
HCC827 [14] = experiment: Induction of mutant EGFR degradation in human tarceva and iressa-resistant HCC827 cells at 20 to 500 nM by Western blotting; format: functional, cell-based
Mus musculus [15] = experiment: Hepatotoxicity in ICR-SCID mouse liver assessed as hematopoietic cell differentiation administered 3 times per week for 4 weeks measured after 24 hrs of last dose; format: toxicity, organism-based; settings: in vivo
NCI-H1975 [16] = experiment: Induction of mutant Cdk4 degradation in human tarceva and iressa-resistant NCI-H1975 cells at 20 to 500 nM by Western blotting; format: functional, cell-based
HCT-116 = experiment: Growth inhibition of human HCT116 cells assessed as ATP level after 4 days; format: functional; settings: HCT-116, 96 h
BT-474 [17] = experiment: Induction of HER2 degradation in human BT474 cells xenografted in ICR-SCID mouse at 100 mg/kg, ip administered after 3 weeks tumor implantation after 6 to 48 hrs by Western blotting; format: functional, organism-based; set-up: dose 100 mg/kg
Mus musculus [18] = experiment: Hepatotoxicity in ICR-SCID mouse liver assessed as alkaline phosphatase level at 100 mg/kg administered 3 times per week for 4 weeks measured after 24 hrs of last dose relative to untreated control; format: toxicity, organism-based; set-up: dose 100 mg/kg; settings: in vivo
[19] = Growth inhibition of human tarceva and iressa-resistant HCC827 cells assessed as ATP level after 4 days; format: functional; settings: HCC827, 96 h
[20] = Drug level in tumor of human BT474 cells xenografted in ICR-SCID mouse at 200 mg/kg, ip administered after 3 weeks tumor implantation measured after 12 hrs; format: ADME, organism-based, Neoplasm, BT-474; set-up: dose 200 mg/kg, route intraperitoneal; settings: tumor (human BT474 xenograft), read-out: Drug uptake
HCC827 [21] = experiment: Induction of mutant c-Raf degradation in human tarceva and iressa-resistant HCC827 cells at 20 to 500 nM by Western blotting; format: functional, cell-based
[22] = Drug level in tumor of human BT474 cells xenografted in ICR-SCID mouse at 150 mg/kg, ip administered after 3 weeks tumor implantation measured after 24 hrs; format: ADME, organism-based, Neoplasm, BT-474; set-up: dose 150 mg/kg, route intraperitoneal; settings: tumor (human BT474 xenograft), read-out: Drug uptake
NCI-H1975 [23] = experiment: Induction of mutant EGFR degradation in human tarceva and iressa-resistant NCI-H1975 cells at 20 to 500 nM by Western blotting; format: functional, cell-based
K562 = experiment: Growth inhibition of human K562 cells assessed as ATP level after 4 days; format: functional; settings: K562, 96 h
BT-474 [24] = experiment: Growth inhibition of human BT474 cells assessed as ATP level after 4 days; format: functional; settings: BT-474, 96 h
BT-474 [25] = experiment: Induction of AKT degradation in human BT474 cells xenografted in ICR-SCID mouse at 100 mg/kg, ip administered after 3 weeks tumor implantation after 6 to 48 hrs by Western blotting; format: functional, organism-based; set-up: dose 100 mg/kg
[26] = molecular target: Heat shock protein HSP 90-alpha (Homo sapiens) (UniProt P07900)
Description: Binding affinity to human HSP90alpha

Mus musculus [27] = experiment: Hepatotoxicity in ICR-SCID mouse liver assessed as bilirubin level at 100 mg/kg administered 3 times per week for 4 weeks measured after 24 hrs of last dose relative to untreated control; format: toxicity, organism-based; set-up: dose 100 mg/kg; settings: in vivo
Mus musculus [28] = experiment: Toxicity in ICR-SCID mouse heart assessed as cholesterol level at 150 mg/kg administered 3 times per week for 4 weeks measured after 24 hrs of last dose relative to untreated control; format: organism-based; set-up: dose 150 mg/kg; settings: in vivo
Mus musculus [29] = experiment: Hepatotoxicity in ICR-SCID mouse liver assessed as alkaline phosphatase level at 150 mg/kg administered 3 times per week for 4 weeks measured after 24 hrs of last dose relative to untreated control; format: toxicity, organism-based; set-up: dose 150 mg/kg; settings: in vivo
HCC827 [30] = experiment: Induction of mutant Cdk4 degradation in human tarceva and iressa-resistant HCC827 cells at 20 to 500 nM by Western blotting; format: functional, cell-based
NCI-H1975 [31] = experiment: Growth inhibition of human tarceva and iressa-resistant NCI-H1975 cells assessed as ATP level after 4 days; format: functional; settings: NCI-H1975, 96 h
Mus musculus [32] = experiment: Toxicity in ICR-SCID mouse kidney assessed as creatinine level at 100 mg/kg administered 3 times per week for 4 weeks measured after 24 hrs of last dose relative to untreated control; format: organism-based; set-up: dose 100 mg/kg; settings: in vivo
NCI-H1975 [33] = experiment: Induction of mutant Met degradation in human tarceva and iressa-resistant NCI-H1975 cells at 20 to 500 nM by Western blotting; format: functional, cell-based
[34] = Oral bioavailability in mouse; format: ADME, organism-based; settings: in vivo
[35] = Drug level in tumor of human BT474 cells xenografted in ICR-SCID mouse at 150 mg/kg, ip administered after 3 weeks tumor implantation measured after 12 hrs; format: ADME, organism-based, Neoplasm, BT-474; set-up: dose 150 mg/kg, route intraperitoneal; settings: tumor (human BT474 xenograft), read-out: Drug uptake

concentration at 48 h [2]: 1500 ng/g | GI50 (MDA-MB-468): 9 nM | concentration at 48 h [6]: 4580 ng/g | half-life [10]: 2.5 h | concentration at 24 h [11]: 4020 ng/g | GI50 (HCT-116): 9 nM | concentration at 12 h [20]: 8920 ng/g | concentration at 24 h [22]: 7930 ng/g | GI50 (K562): 6 nM | GI50 (BT-474 [24]): 7 nM | GI50 [26]: 21 nM | GI50 (NCI-H1975 [31]): 25 nM | bioavailability [34]: 3.4% | concentration at 12 h [35]: 6500 ng/g
SMILES: O=C1OCC/C=C/CC/C=C/C(=N/OCC(=O)N2CCCCC2)Cc2c(Cl)c(O)cc(O)c21 [POCHOXIME A]
Activity (BT-474 [1]): Active | Activity (Mus musculus [3]): 31 U/L | Activity (BT-474 [4]): Active | Activity (Homo sapiens): Active | Activity (Mus musculus [5]): 19.3 U/L | Activity (BT-474 [7]): Active | Activity (Mus musculus [8]): 12 U/L | Activity (Mus musculus [9]): 20 mg/dL | Activity (Mus musculus [12]): 19 mg/dL | Activity (NCI-H1975 [13]): Active | Activity (HCC827 [14]): Active | Activity (Mus musculus [15]): Not Active | Activity (NCI-H1975 [16]): Active | Activity (BT-474 [17]): Active | Activity (Mus musculus [18]): 51.3 U/L | GI50 [19]: 31 nM | Activity (HCC827 [21]): Active | Activity (NCI-H1975 [23]): Active | Activity (BT-474 [25]): Active | Activity (Mus musculus [27]): 0.2 mg/dL | Activity (Mus musculus [28]): 119 mg/dL | Activity (Mus musculus [29]): 67.5 U/L | Activity (HCC827 [30]): Active | Activity (Mus musculus [32]): 0.2 mg/dL | Activity (NCI-H1975 [33]): Active
